PubChem BioAssay AID540323 (Johns Hopkins Ion Channel Center, 2011)
pIC50: −log10 of the molar value. The source made the active and inactive calls.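 Rule for the calls: active = peak hERG channel inhibition above 30% at some tested dose, together with a fitted dose response curve; inactive = no hERG inhibition at any dose, or no curve.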

target: Voltage-gated inwardly rectifying potassium channel KCNH2 (Homo sapiens) (UniProt Q12809); assay: hERG channel inhibition, SAR follow-up, selectivity assay for KCNK9 inhibitor project, FluxOR Tl flux, hERG cells, CRC 2 (AID 540323); conditions: hERG-expressing cells, FluxOR thallium flux fluorescence; at 30 µM (top of the series); test wells contain dofetilide at its IC70
Sequence (Q12809 whole entry, looked up): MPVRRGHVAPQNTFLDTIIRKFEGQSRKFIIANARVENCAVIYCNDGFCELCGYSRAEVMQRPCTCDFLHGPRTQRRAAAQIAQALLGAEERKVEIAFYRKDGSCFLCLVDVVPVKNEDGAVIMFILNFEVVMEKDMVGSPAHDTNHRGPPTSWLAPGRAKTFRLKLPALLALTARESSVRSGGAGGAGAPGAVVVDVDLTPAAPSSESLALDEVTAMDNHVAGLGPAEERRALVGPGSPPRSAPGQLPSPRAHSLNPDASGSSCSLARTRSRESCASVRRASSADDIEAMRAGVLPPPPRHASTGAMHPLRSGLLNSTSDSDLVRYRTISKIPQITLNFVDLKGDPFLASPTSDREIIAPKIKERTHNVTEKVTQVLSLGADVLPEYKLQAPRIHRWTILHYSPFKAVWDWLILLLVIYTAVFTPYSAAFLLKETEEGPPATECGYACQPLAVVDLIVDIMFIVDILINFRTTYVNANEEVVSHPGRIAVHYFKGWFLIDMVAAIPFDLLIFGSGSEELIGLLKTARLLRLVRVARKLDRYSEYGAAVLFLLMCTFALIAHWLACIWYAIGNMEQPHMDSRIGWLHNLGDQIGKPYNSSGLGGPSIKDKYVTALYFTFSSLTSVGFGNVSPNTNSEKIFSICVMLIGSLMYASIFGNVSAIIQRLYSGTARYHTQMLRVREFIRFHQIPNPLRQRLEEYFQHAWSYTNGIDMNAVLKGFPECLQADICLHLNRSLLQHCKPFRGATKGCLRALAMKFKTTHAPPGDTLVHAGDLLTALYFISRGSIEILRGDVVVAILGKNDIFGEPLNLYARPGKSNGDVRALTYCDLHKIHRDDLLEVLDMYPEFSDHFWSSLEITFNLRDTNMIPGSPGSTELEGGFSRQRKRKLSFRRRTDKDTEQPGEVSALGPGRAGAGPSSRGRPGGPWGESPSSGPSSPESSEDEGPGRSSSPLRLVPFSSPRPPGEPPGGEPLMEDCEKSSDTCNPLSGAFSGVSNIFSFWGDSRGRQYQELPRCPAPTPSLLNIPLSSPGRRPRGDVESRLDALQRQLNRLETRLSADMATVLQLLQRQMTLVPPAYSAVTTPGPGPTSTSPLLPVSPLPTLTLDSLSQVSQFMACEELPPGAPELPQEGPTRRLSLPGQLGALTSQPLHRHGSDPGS

| Structure (SMILES) | fluorescence ratio, lower = inhibition |
| --- | --- |
| CCOc1ccccc1NC(=O)c1cccc(NC(=O)c2cccc(C)c2)c1 | inactive |
| CCOc1ccccc1NC(=O)c1cccc(NC(=O)c2ccc(OC)cc2)c1 | inactive |
| CCOc1ccccc1NC(=O)c1cccc(NC(=O)c2cccc(C(F)(F)F)c2)c1 | inactive |
| O=C(Nc1cccc(NC(=O)c2cccs2)c1)c1ccccc1 | inactive |
| CC(C1CC2CCC1C2)n1c(-c2cccc(Cl)c2)n[nH]c1=S (stereo not drawn) | inactive |
| COc1ccccc1-c1n[nH]c(=S)n1C(C)C1CC2CCC1C2 (stereo not drawn) | inactive |
| O=C(Nc1cccc(NC(=O)c2ccsc2)c1)c1ccccc1 | inactive |
| CN(C)c1ccc(C(=O)Nc2cccc(NC(=O)c3ccccc3)c2)cc1 | inactive |
| COc1ccc(C(=O)Nc2cccc(NC(=O)c3cccc(C)c3)c2)cc1 | inactive |
| COc1ccccc1C(=O)Nc1cccc(NC(=O)c2ccccc2OC)c1 | inactive |
| CCOc1ccccc1NC(=O)c1cccc(NC(=O)C2CCCCC2)c1 | inactive |
| CC(c1ccccc1)n1c(-c2ccco2)n[nH]c1=S (stereo not drawn) | inactive |
| O=C(Nc1cccc(NC(=O)c2ccccc2)c1)c1ccccc1 | inactive |
| CC(C1CC2CCC1C2)n1c(-c2ccoc2)n[nH]c1=S (stereo not drawn) | inactive |
| CC(C1CC2CCC1C2)n1c(-c2ccccc2Cl)n[nH]c1=S (stereo not drawn) | inactive |
| CCOc1ccccc1NC(=O)c1cccc(NC(=O)CC2CCCC2)c1 | inactive |
| CCOc1ccccc1NC(=O)c1cccc(NC(=O)c2ccc(C(F)(F)F)cc2)c1 | inactive |
| Cc1ccc(-c2n[nH]c(=S)n2C(C)C2CC3CCC2C3)cc1 (stereo not drawn) | inactive |

| Structure (SMILES) | fluorescence ratio, lower = inhibition |
| --- | --- |
| CCOc1ccccc1NC(=O)c1cccc(NC(=O)c2ccccc2C(F)(F)F)c1 | inactive |
| Cc1ccc(C(=O)Nc2cccc(NC(=O)c3ccccc3)c2)cc1 | inactive |
| Cc1cccc(C(=O)Nc2cccc(NC(=O)c3ccccc3C)c2)c1 | inactive |
| Cc1cccc(C(=O)Nc2cccc(NC(=O)c3ccncc3)c2)c1 | inactive |
| CCOc1ccccc1NC(=O)c1cccc(NC(=O)CC2CCCCC2)c1 | inactive |
| COc1cccc(C(=O)Nc2cccc(NC(=O)c3cccc(C)c3)c2)c1 | inactive |
| O=C(Nc1cccc(NC(=O)c2ccccc2C(F)(F)F)c1)c1ccccc1 | inactive |
| CCOc1ccccc1NC(=O)c1cccc(NC(=O)c2ccccc2OC(F)(F)F)c1 | inactive |
| O=C(Nc1cccc(NC(=O)c2ccccc2Cl)c1)c1ccccc1 | inactive |
| COc1ccccc1NC(=O)c1cccc(NC(=O)c2ccccc2C(F)(F)F)c1 | inactive |
| COc1cccc(OC)c1C(=O)Nc1cccc(NC(=O)c2cccc(C)c2)c1 | inactive |
| CC(C1CC2CCC1C2)n1c(-c2ccco2)n[nH]c1=S (stereo not drawn) | inactive |
| CCOc1ccccc1NC(=O)c1cccc(NC(=O)c2ccc(C)cc2)c1 | inactive |
| Cc1ccccc1-c1n[nH]c(=S)n1C(C)C1CC2CCC1C2 (stereo not drawn) | inactive |
| CCOc1ccccc1NC(=O)c1cccc(NC(=O)c2ccccc2C)c1 | inactive |
| COc1ccc(-c2n[nH]c(=S)n2C(C)C2CC3CCC2C3)cc1 (stereo not drawn) | inactive |
| COc1ccccc1C(=O)Nc1cccc(NC(=O)c2ccccc2C)c1 | inactive |
| COc1ccccc1NC(=O)c1cccc(NC(=O)c2ccccc2OC)c1 | inactive |

same assay, conditions: hERG-expressing cells, FluxOR thallium flux fluorescence; test wells contain dofetilide at its IC70

| Structure (SMILES) | pIC50 |
| --- | --- |
| Cc1cccc(C(=O)Nc2cccc(NC(=O)c3ccccc3)c2)c1 | 5.09 |
| Cc1cccc(C(=O)Nc2cccc(NC(=O)c3cccc(C)c3)c2)c1 | 4.91 |
